Literature values in patent publication US11554003B2, “Filtration devices and methods related thereto” (The Regents of the University of California, priority 2015, dated 2023).

Conditions: IAC; regardless of infused dose

COc1cccc2c1C(=O)c1c(O)c3c(c(O)c1C2=O)C[C@@](O)(C(=O)CO)C[C@@H]3O[C@H]1C[C@H](N)[C@H](O)[C@H](C)O1 [Dox, doxorubicin]
first pass hepatic clearance: 50-70%
